Measured values from patent publication US20140348958A1, “Anticancer Active Ingredient From Guiera Senegalensis” (UNIVERSITE D'AUVERGNE CLERMONT I, priority 2011, published 2014).
Values joined by “and” are separate entries in the source; they are usually repeats but may differ in a detail not shown here. Equal values may be shown once. Read-outs that look alike come from different tables or passages of the source.

System: mammary cancer cells MCF-7
Experiment: Proliferation measurement of mammary cancer cells MCF-7 (resazurin, 72 hrs exposure)
Assay type: cell-based
Settings: for IC50: Homo sapiens; for Inhibition percentage: screening, single values and Averages
Description: Detailed Procedure of the Proliferation Measurement of Mammary Cancer Cells MCF-7
1st Part Day 1: Sowing the Cells
1. Preparation of the Medium:
• Preparation of the volume to be put into the plates:
In a 50 mL Falcon, prepare 30 mL of complete RPMI with 10% FCS and 1% Glutamine: 27 mL of RPMI: 3 mL of FCS and 300 μL of Glutamine.
2. Preparation of the Cell Suspension:
• Suck up the medium contained in the flask with the vacuum pump • Rinse with 3 mL of PBS and suck up with the vacuum pump • Add 1 mL of trypsin and let it act for 3 mins in the oven at 37° C. in order to detach the cells. • When the cells are detached, add 2 mL of complete medium prepared previously for inactivating the trypsin. • Mix well the suspension by suction-discharge and transfer into a well-defined Falcon 15. • Count the cells in a Malassez cell: carry out dilution to one 20th for counting them with Trypan blue.
• Sow the plates with 200 μL of cell suspension according to the determined scheme • Put 200 μL of water in the peripheral wells • Leave for incubation for 24 hours.
2nd Part: Day 2, the Extract is Exposed
4. Preparation of the Medium:
A total of 45 mL of medium to be prepared in a Falcon 50 sterilized i.e. 40.5 mL of RPMI+4.5 mL of FCS+450 μL of glutamine
5. Preparation of the Extracts:
• prepare a 10 mg/mL solution: • Dissolve 8.1 mg of crude extract (noted as SF) according to Example 1, of the SF 5 fraction according to Example 2 or of the KP-18^E fraction (Guieranone B) in 810 μL of DMSO • Prepare the mother solution of extract (Ex) at 100 μg/mL i.e. 50 μL of (10 mg/ml) in 4,950 μL of RPMI • Produce the range of extracts (for 1 extract and only 1 range). • Remove the medium in the plates and add 200 μL per well of an extract range (one column per concentration). • Incubate the plates in the oven at 37° C. for 72 hrs.
6. Prepare Resazurin (Developer) and Read the Plate to
2 columns of cells+one column of resazurin alone=3 columns
200 μL/well×3 columns×6 lines=3,600 μL (total volume to be prepared: 5 mL) • Prepare 4.9 mL of medium+100 μL resazurin
Remove the medium and add 200 μL of (medium+resazurin) per well. • Incubate for 2 hours and read with fluorskan. 3rd Part: Measurement of Proliferation at 24 Hours (for t0), 72 Hrs for Extract • For the extract at 72 hrs:
200 μL/well×18 columns×6 lines (total volume to be prepared: 25 mL) • Prepare 24.5 mL of RPMI+500 μL of resazurin • Remove the medium and add 200 μL of (medium+resazurin) per well. • After 2 hours, readout with fluorskan.

[1] = MCF7, MCF-7 mammary cancer cell line, same conditions (Table 2), read-out: Average Cl50 in μM
[2] = MCF7, MCF-7 mammary cancer cell line, same conditions (Table 2), read-out: Average Cl50 in μg/mL
[3] = MCF7, mammary cancer line MCF-7, same conditions (Table 15, identical with Table 2), read-out: Average CI50 in μM
[4] = MCF7, mammary cancer line MCF-7, same conditions (Table 15, identical with Table 2), read-out: Average CI50 in μg/mL

| IC50 [1] [µM] | IC50 [2] [µg/mL] | IC50 [3] [µM] | IC50 [4] [µg/mL] | IC50 (MCF7, 72 h, KP-18E, MCF-7, 72 hrs, average of the 6 tests, read-out: Average C150) [µg/mL] | IC50 (MCF7, 72 h, KP-18E, MCF-7, 72 hrs, each of the 6 tests (1-2, N1-N3), read-out: CI50 (the source's name)) [µg/mL] | SMILES | Inhibition percentage (KP-18E 1.5 μg/mL, MCF-7, 72 hrs) | Inhibition percentage (KP-18E 1.5 μg/mL, MCF-7, 72 hrs, mean) [%] | Inhibition percentage (KP-18E 2 μg/mL, MCF-7, 72 hrs) | Inhibition percentage (KP-18E 2 μg/mL, MCF-7, 72 hrs, mean) [%] | Inhibition percentage (KP-18E 2.5 μg/mL, MCF-7, 72 hrs) | Inhibition percentage (KP-18E 2.5 μg/mL, MCF-7, 72 hrs, mean) [%] | Inhibition percentage (KP-18E 3 μg/mL, MCF-7, 72 hrs) | Inhibition percentage (KP-18E 3 μg/mL, MCF-7, 72 hrs, mean) [%] | Inhibition percentage (KP-18E 4 μg/mL, MCF-7, 72 hrs) | Inhibition percentage (KP-18E 4 μg/mL, MCF-7, 72 hrs, mean) [%] | Inhibition percentage (KP-18E 5 μg/mL, MCF-7, 72 hrs) [%] | CI50 (KP-18E, MCF-7, 72 hrs, each of the 6 tests (1-2, N1-N3)) | antiproliferative activity (in words) (line of mammary cancer cells MCF-7) |
| --- | --- | --- | --- | --- | --- | --- | --- | --- | --- | --- | --- | --- | --- | --- | --- | --- | --- | --- | --- |
| 4.04 ± 0.39 | 0.53 ± 0.05 | 4.04 ± 0.39 | 0.53 ± 0.05 |  |  | O=c1[nH]cc(F)c(=O)[nH]1 [5-FU, 5-Fluorouracil, reference compound] |  |  |  |  |  |  |  |  |  |  |  |  |  |
| 7.09 | 2.24 ± 0.13 | 7.09 | 2.24 ± 0.13 | 2.25 | 2.05 | C/C=C/C(=O)C1=CC(OC)=C2C(=O)C(OC)=CC(OC)=C2C1=O [Guieranone B] | 49.86% and 36.10% and 48.15% and 50.66% and 53.59% and 53.16% | 48.59 | 68.59% and 62.54% and 43.35% and 59.58% and 61.13% and 48.79% | 57.33 | 69.73% and 57.84% and 59.61% and 65.92% and 65.73% and 68.02% | 64.48 | 94.22% and 77.40% and 86.16% and 83.19% and 84.81% and 92.10% | 86.31 | 100.00% and 99.38% | 99.90 | 100.00 | 2.7202 µg/mL and 2.1664 µg/mL and 2.5518 µg/mL and 2.067 µg/mL and 1.9176 µg/mL | high antiproliferative activity |
